Results taken from US6150414A, “Compositions and methods for treating viral infections” (priority 1992, dated 2000).
Where “and” joins values, the source holds several entries; their conditions need not be identical. Equal values may be shown once. Read-outs that look alike come from different tables or passages of the source.

Tested on: Friend Leukemia Virus
Test: Inhibition of Friend Leukemia Virus-induced splenomegaly in mice, compounds intraperitoneally 24 hours after virus (Example 1(a))
Assay type: in vivo, BALB/c mice
Design: Actual Spleen Weight / Average Spleen Weight: unit not given here
Conditions: Table III; for inhibition in vivo at 0.1 mg / inhibition in vivo at 0.05 mg / inhibition in vivo at 0.2 mg: Mus musculus, ip; for Pooled Average % Inhibition: pooled over 50, 100, 200, 2 × 100 micrograms; for Actual Spleen Weight: single animal
Excerpt: The effects of compositions according to the present invention on infection of mammals with Friend Leukemia Virus (FV) were examined.
Friend Leukemia Virus is an aggressive retrovirus which induces an acute erythroleukemia in sensitive strains of mice such as BALB/c and NIH swiss mice as described in Friend, C. J., Exp. Med. 105: 307-324, 1957; Friend, C. et al. Proc. Natl. Acad. Sci. USA 68: 378-383, 1971; Friend, C. et al. Natl. Cancer Inst. Mongr. 22: 508-552, 1966. The malignant transformation is the result of the combined activities of the Spleen Focus Forming Virus (SFFV) and the ecotropic Murine Friend Leukemia Helper Virus (F-MuLV). The acute erythroleukemia is characterized by hepatosplenomegaly (a marked increase in the size of the spleen and liver) and a severe anemia.
Friend Leukemia Virus was prepared by homogenizing the enlarged spleen of a mouse previously infected with FV, 10 days after intravenous virus injection. The spleen was homogenized in phosphate buffered saline in a volume equal to ten times the weight of the isolated spleen.
The effects of compositions according to the present invention on the increase in spleen size (splenomegaly) of BALB/c mice (Jackson Labs, Bar Harbor, ME) was examined. In these experiments, the virus (10^6 focus forming units--FFU) was inoculated intravenously and 100 micrograms of the compounds indicated in Table II were administered to the mice intraperitoneally 24 hours later. Each compound was administered once to two mice. The animals were sacrificed ten days later and their spleens weighed.
The present assay has been developed from similar assays using hypericin or pseudohypericin and employing higher numbers of experimental animals per group (e.g. 4 animals). It was discovered however that the specificity and sensitivity of this assay are such that an experimental group of two animals is of more than adequate predictive value.
As used in Table II (and subsequent Tables of this Example l(a) and (b), "average percent inhibition" is calculated as follows: [formula] wherein "ASWNC" designates "average spleen weight of negative control"; "ASWE" designates "average spleen weight of experimental (treated) subject"; and "ASWPC" designates "average spleen weight of positive control". Average spleen weight is the numerical average of spleen weights of each experimental group (in Table II each such group includes two members).
In these experiments, the virus (10^6 focus forming units--FFU) was inoculated intravenously, and the indicated doses of the antiviral compounds of this invention were administered to the BALB/c mice intraperitoneally 24 hours later. The animals were then sacrificed ten days later and their spleens weighed.
Pseudohypericin was diluted in phosphate buffered saline with 1% ethanol.
An expanded series of experiments was next performed in which various concentrations (i.e. 50, 100, 200 and 2×100, i.e., 100 micrograms administered twice) of a different set of PAC compounds (numbers 16-29 and 30-36 in Table III below) were administered intraperitoneally each according to the same protocol described above. Compounds 16-29 all had 3-5 fused, aromatic rings and no side groups except for oxygen or hydroxyl groups, whereas compounds 30-36 all had 3 fused aromatic rings and side chains selected from the group of oxygen, hydroxyl and methyl.
When 2 doses of the compounds were given, the second dose was administered 24-48 hours after the first injection. The animals were infected and splenomegaly determined as above for the compounds in Table II. In Table III, "pooled average percent inhibition" is calculated by adding the average percent inhibition for each experiment with the same compound and dividing the sum by the number of experiments (i.e. the number 4). […]

[1] = read-out: Average Perdosage % Inhibition, dose 2 × 100 (micrograms) i.p.
[2] = read-out: Average Perdosage % Inhibition, dose 50 (micrograms) i.p.
[3] = read-out: Average Perdosage % Inhibition, dose 100 (micrograms) i.p.
[4] = read-out: Average Perdosage % Inhibition, dose 200 (micrograms) i.p.
[5] = dose 2 × 100 (micrograms) i.p., read-out: Average Perdosage % Inhibition
[6] = dose 50 (micrograms) i.p., read-out: Average Perdosage % Inhibition
[7] = dose 100 (micrograms) i.p., read-out: Average Perdosage % Inhibition
[8] = dose 200 (micrograms) i.p., read-out: Average Perdosage % Inhibition
[9] = dose 2 × 100 (micrograms) i.p., second dose 24-48 hours later

| Molecule | inhibition in vivo at 0.1 mg [1] [%] | inhibition in vivo at 0.05 mg [2] [%] | inhibition in vivo at 0.1 mg [3] [%] | inhibition in vivo at 0.2 mg [4] [%] | Average Spleen Weight (dose 2 × 100 (micrograms) i.p.) | Average Spleen Weight (dose 50 (micrograms) i.p.) | Average Spleen Weight (dose 100 (micrograms) i.p.) | Average Spleen Weight (dose 200 (micrograms) i.p.) | Pooled Average % Inhibition [%] | inhibition in vivo at 0.1 mg [5] [%] | inhibition in vivo at 0.05 mg [6] [%] | inhibition in vivo at 0.1 mg [7] [%] | inhibition in vivo at 0.2 mg [8] [%] | further results |
| --- | --- | --- | --- | --- | --- | --- | --- | --- | --- | --- | --- | --- | --- | --- |
| c1ccc(-c2c3ccccc3c(-c3ccccc3)c3ccccc23)cc1 [Compound 22, 9,10-Diphenylanthracene] | 13 | 41 | 5 | 0 | 1.4120 | 0.9936 | 1.5171 | 1.5913 | 15 | – | – | – | – | – |
| c1cc2c3c(ccc4c3c1CCC4)CCC2 [Compound 23, 1,2,3,6,7,8-Hexahydropyrene] | – | – | – | – | 1.1281 | 1.2092 | 1.5131 | 1.0961 | 25 | 32 | 26 | 6 | 34 | – |
| O=C1C(c2ccccc2)=C(c2ccccc2)C(c2ccccc2)=C1c1ccccc1 [Compound 24, Tetraphenylcyclo pentadienone] | – | – | – | – | 1.2437 | 1.2959 | 1.3940 | 1.5070 | 16 | 24 | 20 | 14 | 6 | – |
| Cc1ccc2cc3ccccc3cc2c1 [Compound 25, 2-Methylanthracene] | 29 | 26 | 37 | 28 | 1.1758 | 1.2104 | 1.0606 | 1.1904 | 30 | – | – | – | – | – |
| c1ccc(C2=C(c3ccccc3)C(c3ccccc3)=C(c3ccccc3)C2)cc1 [Compound 26, 1,2,3,4-Tetraphenyl-1,3-cyclopentadiene] | – | – | – | – | 1.5966 | 1.1985 | 1.0280 | 1.1131 | 25 | 0 | 27 | 39 | 33 | – |
| c1cc2cccc3c4cccc5cccc(c(c1)c23)c54 [Compound 27, Perylene] | 11 | 19 | 5 | 1 | 1.4342 | 1.3148 | 1.5227 | 1.6044 | 9 | – | – | – | – | – |
| c1ccc2cc3cc4cc5ccccc5cc4cc3cc2c1 [Compound 28, Pentacene] | – | – | – | – | 1.4102 | 1.2780 | 1.5384 | 1.4278 | 12 | 13 | 22 | 4 | 11 | – |
| C=Cc1c2ccccc2cc2ccccc12 [Compound 29, 9-Vinylanthracene] | 15 | 4 | 26 | 21 | 1.3747 | 1.6517 | 1.2199 | 1.2933 | 14 | – | – | – | – | Actual Spleen Weight [9]: 1.3747; Actual Spleen Weight (dose 200 (micrograms) i.p.): 1.2933 |
| O=c1c2ccccc2oc2ccccc12 [Compound 31, Xanthone] | 62 | 57 | 58 | 60 | 0.9003 | 1.0006 | 0.9806 | 0.9431 | 59 | – | – | – | – | – |
| O=C1c2ccc(O)cc2C(=O)c2ccc(O)cc21 [Compound 32, Anthraflavic acid] | – | – | – | – | 0.9325 | 1.5718 | 1.1542 | 0.8593 | 50 | 60 | 26 | 49 | 64 | – |
| O=C1c2ccccc2C(=O)C1c1ccccc1 [Compound 33, 2-phenyl-1,2 inadione] | – | – | – | – | 0.9127 | 0.9410 | 1.7763 | 0.7938 | 51 | 61 | 60 | 16 | 68 | – |
| Phenylanthracene [Compound 18] | – | – | – | – | 1.2169 | 1.1803 | 1.554 | 1.3296 | 19 | – | – | – | – | Actual Spleen Weight [9]: 1.4116 and 1.0222; Average Perdosage % Inhibition (dose 2 × 100 (micrograms) i.p.): 26%; Average Perdosage % Inhibition (dose 50 (micrograms) i.p.): 28%; Actual Spleen Weight (dose 50 (micrograms) i.p.): 1.1141 and 1.2464; Average Perdosage % Inhibition (dose 100 (micrograms) i.p.): 3%; Actual Spleen Weight (dose 100 (micrograms) i.p.): 1.6206 and 1.4902; Average Perdosage % Inhibition (dose 200 (micrograms) i.p.): 18%; Actual Spleen Weight (dose 200 (micrograms) i.p.): 1.3797 and 1.2794 |
